Legend:
L. crispatus = experiment: High throughput assay screening of prebiotics; assay type: cell-based, Lactobacillus crispatus; set-up: key: ++: if growth and fermentation was equal to or greater than the positive control; +: if growth and fermentation was less than the positive control; +: if weak or no growth or fermentation; +^2: Bacteria demonstrated growth but no fermentation on the prebiotic; details: 2% w/v prebiotic in API 50 CHL media; for growth and fermentation vs positive control, Lc-4: L. crispatus KC18-1174-1, Vagina
Outline: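 Prebiotic or glucose/dextrose positive control in API 50 CHL minimal-carbon medium with bromocresol purple, inoculated with bacterial suspension (0.5 McFarland streptococci/enterococci, 1 McFarland lactobacilli). Read every 20 min for 24-48 h; OD430 rise/OD590 fall marks fermentation, OD660 rise marks growth, scored versus positive control.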

L. jensenii = experiment: High throughput assay screening of prebiotics; assay type: cell-based, Lactobacillus jensenii; set-up: key: ++: if growth and fermentation was equal to or greater than the positive control; +: if growth and fermentation was less than the positive control; +: if weak or no growth or fermentation; +^2: Bacteria demonstrated growth but no fermentation on the prebiotic; details: 2% w/v prebiotic in API 50 CHL media
Protocol: Most of the prebiotic compounds were initially tested in a high throughput assay screening process, described further in the Test Methods section herein, but three prebiotics (as noted in Table 3) were tested using a plate assay screening process as described in the Test Methods section herein. The prebiotics were tested against the commensal bacterial species of Lactobacillus crispatus, Lactobacillus gasseri, and Lactobacillus jensenii and against the pathogenic bacterial species of Streptococcus anginosus and Enterococcus faecalis as shown in Table 2. The bacterial species were taken from different sources, listed as culture collection, bladder, and vagina.
The results of the assay plate screening of the prebiotic compounds of Table 1 against the bacterial species of Table 2 is documented in Table 3 with the results being described by the following legend: • ++ if growth and fermentation was equal to or greater than the positive control • + if growth and fermentation was less than the positive control • […] if weak or no growth or fermentation • NT if not tested Some codes were not tested based on the use or non-use by the bacteria, as a way to efficiently move through the assay plate screening to the competition assay, described below.
• 1. Create a 2% w/v stock of prebiotic or positive control (glucose/dextrose) to be tested in API 50 CHL media (Biomerieux, Marcy-I'Étoile, France). API 50 CHL media contains minimal amounts of carbon for growth, and a bromocresol purple as a pH indicator of fermentation. Filter sterilize media with a […]. Store at 4-6° C. until use. • 2. Add 180 μL of media containing the prebiotic to a sterile, flat bottom 96-well microtiter plate (Corning, Corning, NY). • 3. From a freezer stock subculture the bacteria twice into De Man, Rogosa and Sharpe (MRS) broth (BD Difco, Becton Dickinson, Franklin Lakes, NJ), 37° C., stationary, anaerobic, overnight. • 4. From the last subculture, plate onto an MRS agar plate (Teknova, Hollister, CA) and grow 37° C., stationary, anaerobic, overnight. • 5. Create a bacterial suspension by using a sterile tipped swab to transfer colonies of bacteria into a PBS suspension blank to a 0.5 MacFarland (S. anginosus or E. faecalis) or a 1 MacFarland (Lactobacillus species) from the MRS agar plate. • 6. Enumerate the starting culture. • 7. Inoculate the media alone and media containing the prebiotic or positive control with 20 μL of the bacterial suspension. • 8. Place the plate into a spectrophotometer (Molecular Devices, San Jose, CA) and read the plate every 20 minutes for 24-48 hours. Read wavelengths (OD 430, OD 590, and OD 660). A color change to yellow caused by a drop in pH will be read by an increase in the OD430 value and a decrease in the OD590 value and is indicative of bacterial fermentation. An increase in OD660 values is indicative of an increase in turbidity and bacterial growth.

[1] = tested on: commensal and pathogenic bacterial species; experiment: Prebiotic screening, summary in words across species; assay type: cell-based; details: commensal (L. crispatus, L. gasseri, L. jensenii) and pathogenic (S. anginosus, E. faecalis) species
Outline: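 Prebiotics at 2% w/v stock in API 50 CHL medium with bromocresol purple, inoculated with bacteria and read every 20 min for 24-48 h at OD430/590 (fermentation) and OD660 (growth), scored against a glucose control. Some tested on MRS-based agar with the prebiotic in place of glucose; competition assay with L. crispatus and S. anginosus incubated 48 h anaerobically at 37 °C, then enumerated on MRS and TSA.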

| Compound | growth and fermentation vs positive control, Lc-2 (L. crispatus; L. crispatus KC16-7134-3C, Bladder) | growth and fermentation vs positive control, Lc-4 (L. crispatus) | growth and fermentation vs positive control, Lj-2 (L. jensenii; L. jensenii KC17-4347-1, Bladder) | overall outcome of the screening of Table 3, in words [1] | growth and fermentation vs positive control, Lc-3 (L. crispatus; L. crispatus KC18-1173-1, Bladder) | growth and fermentation vs positive control, Lj-1 (L. jensenii; L. jensenii KC17-4297-18, Bladder) |
| --- | --- | --- | --- | --- | --- | --- |
| CO[C@H]1O[C@H](CO)[C@@H](O)[C@H](O)[C@H]1O [Alpha-Methyl-D-Glucoside] | + | + | + | growing at least some of the commensal bacterial species and either having less growth than the positive control or almost no growth of the pathogenic bacterial species |  |  |
| OC[C@H]1O[C@H](OC[C@H]2OC(O)(CO)[C@@H](O)[C@@H]2O)[C@H](O)[C@@H](O)[C@@H]1O (some centres unmarked) [Palatinose (isomaltulose), isomaltulose] |  | ++ |  | growing at least some of the commensal bacterial species and either having less growth than the positive control or almost no growth of the pathogenic bacterial species | ++ | + |
